Measurements taken from US20130287870A1, “NOVEL USES FOR TRADITIONAL CHINESE MEDICINE” (priority 2012, published 2013).

Columns and labels:
[1] = tested on: cortical neurons; experiment: Oxygen glucose deprivation (OGD) model, neuronal death assessed by Hoechst staining; assay type: cell-based, mouse; settings: glibenclamide 10 μM applied 30 min before MLC901 1 μg/mL
Protocol: Time-pregnant (E14) C57B16/J mice were anesthetized with isopentane followed by cervical dislocation as previously described (Heurteaux et al., 2010). Fetuses were removed and placed in cold HBSS^+ solution. Cerebral cortices were dissected in cold HBSS^+ solution and the meninges were removed. Cortical samples were cut in small pieces and were gently triturated with a fire-polished glass Pasteur pipette in 8 ml HBSS^+ solution. The mix was filtered (40 μm filter) and centrifuged at 800 rpm for 8 min. The supernatant was removed and the pellet was dissolved in 2 ml culture medium. Cells were plated on poly-D-lysine (Sigma-Aldrich Chimie, St Quentin Fallavier, France)-coated 12 well (24 mm diameter) plates with glass coverslips (12 mm diameter) (CML, Nemours, France) at a density of 1×10^6 cells/well. Cultures were maintained at 37° C. in a humidified 95% air/5% CO2 atmosphere incubator in Neurobasal supplemented with B27, Glutamax, 100 units/ml penicillin, and 100 µg/ml streptomycin and used for experiments up to 12 days. Glial growth was suppressed by addition of 5-Fluoro-2-deoxyuridine (2 μM) and Uridine (2 μM) during the second day of culture.
OGD experiments were performed on primary mouse cortical neurons seeded at a density of 1,000,000 cells/35-mm dish after 4 days of culture (Goldberg and Choi, 1993). […]

[2] = tested on: cortical neurons; experiment: Membrane hyperpolarization associated with neuroprotection; assay type: cell-based, mouse
[3] = target: KATP channel (Kir 6.2 and SUR 1) (Homo sapiens, UniProt Q09428+Q14654); experiment: Two-electrode voltage clamp of KATP channels expressed in Xenopus oocytes, preactivated by sodium azide; assay type: cell-based; settings: sodium azide 3 mM; test substance 10 μM
Chain of KATP channel (Kir 6.2 and SUR 1) (Q14654 whole entry): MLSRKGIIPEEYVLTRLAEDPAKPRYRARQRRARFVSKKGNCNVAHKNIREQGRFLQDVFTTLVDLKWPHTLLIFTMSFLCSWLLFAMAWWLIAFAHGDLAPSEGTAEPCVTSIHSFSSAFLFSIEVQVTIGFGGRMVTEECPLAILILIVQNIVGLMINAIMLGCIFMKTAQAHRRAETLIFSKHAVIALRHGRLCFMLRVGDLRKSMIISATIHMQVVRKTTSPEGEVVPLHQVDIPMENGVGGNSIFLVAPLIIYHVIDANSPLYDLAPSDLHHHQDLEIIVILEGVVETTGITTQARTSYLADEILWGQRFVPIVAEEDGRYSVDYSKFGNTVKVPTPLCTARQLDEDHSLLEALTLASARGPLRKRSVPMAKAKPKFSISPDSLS
Chain of KATP channel (Kir 6.2 and SUR 1) (Q09428 whole entry): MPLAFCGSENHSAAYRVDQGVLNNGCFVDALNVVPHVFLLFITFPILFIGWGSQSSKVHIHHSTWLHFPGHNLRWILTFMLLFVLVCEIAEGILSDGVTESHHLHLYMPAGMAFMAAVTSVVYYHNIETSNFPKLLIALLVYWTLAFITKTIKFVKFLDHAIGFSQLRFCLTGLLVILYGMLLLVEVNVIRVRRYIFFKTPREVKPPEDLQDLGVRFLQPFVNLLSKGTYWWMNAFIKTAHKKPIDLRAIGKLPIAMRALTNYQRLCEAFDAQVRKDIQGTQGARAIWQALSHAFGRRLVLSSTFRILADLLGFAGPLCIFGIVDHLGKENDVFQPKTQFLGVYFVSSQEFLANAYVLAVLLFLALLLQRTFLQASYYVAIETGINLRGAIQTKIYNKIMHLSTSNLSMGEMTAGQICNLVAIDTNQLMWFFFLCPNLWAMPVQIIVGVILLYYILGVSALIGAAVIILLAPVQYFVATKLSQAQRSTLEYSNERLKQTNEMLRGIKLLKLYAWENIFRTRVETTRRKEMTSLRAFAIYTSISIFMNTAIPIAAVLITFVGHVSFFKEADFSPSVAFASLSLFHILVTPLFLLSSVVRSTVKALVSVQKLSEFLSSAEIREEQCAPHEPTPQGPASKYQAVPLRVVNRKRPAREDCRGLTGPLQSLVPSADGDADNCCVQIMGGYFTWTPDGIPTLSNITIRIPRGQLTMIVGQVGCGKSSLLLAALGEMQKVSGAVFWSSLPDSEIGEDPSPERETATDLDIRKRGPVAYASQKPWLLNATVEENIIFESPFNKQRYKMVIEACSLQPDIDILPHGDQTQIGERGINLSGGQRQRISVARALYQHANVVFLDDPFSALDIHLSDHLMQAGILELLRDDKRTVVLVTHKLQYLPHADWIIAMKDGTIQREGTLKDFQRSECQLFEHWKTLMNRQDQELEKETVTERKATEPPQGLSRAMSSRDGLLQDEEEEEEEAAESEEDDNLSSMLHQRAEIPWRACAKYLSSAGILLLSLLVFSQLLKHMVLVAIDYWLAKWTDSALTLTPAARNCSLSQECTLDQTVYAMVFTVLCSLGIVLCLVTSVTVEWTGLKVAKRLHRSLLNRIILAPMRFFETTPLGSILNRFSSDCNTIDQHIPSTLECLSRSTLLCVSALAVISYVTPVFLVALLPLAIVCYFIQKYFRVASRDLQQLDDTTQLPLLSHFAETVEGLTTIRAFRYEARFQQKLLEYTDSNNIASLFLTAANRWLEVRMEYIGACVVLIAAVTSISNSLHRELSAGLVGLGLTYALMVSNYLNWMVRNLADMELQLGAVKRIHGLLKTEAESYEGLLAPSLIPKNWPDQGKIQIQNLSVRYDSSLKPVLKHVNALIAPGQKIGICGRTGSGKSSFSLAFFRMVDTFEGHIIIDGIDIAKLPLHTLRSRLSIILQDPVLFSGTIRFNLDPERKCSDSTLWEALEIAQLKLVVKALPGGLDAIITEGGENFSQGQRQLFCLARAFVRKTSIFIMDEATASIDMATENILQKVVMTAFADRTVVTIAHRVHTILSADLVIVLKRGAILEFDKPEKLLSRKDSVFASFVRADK
Protocol: Defolliculated Xenopus oocytes were injected with 100 mL of cRNA at 0.02-0.4 μg/μL for Kir 6.2 and SUR 1 expression, and recorded 2-4 days later.
For electrophysiology, single oocytes were placed in a 0.3-mL perfusion chamber and impaled with two standard microelectrodes (1-2.5 M.Q. resistance) filled with 3 M KCl and voltage clamped with a Dagan CA-1 amplifier, in symmetrical potassium solution containing (in mM) (90 KCl, 1.8 CaCl2, 1 mM MgCl2, 5 Hepes, pH 7.4 with KOH). Stimulation of the preparation, data acquisition, and analysis were performed using pClamp software (Axon Instruments). Currents were recorded in this potassium symmetrical control condition. KATP channel activity was evaluated by intracellular ATP depletion by 3 mM of sodium azide.
For Kir 6.2 and SUR 1 expression defolliculated Xenopus oocytes were injected with 100 mL of cRNA at 0.02-0.4 μg/μL, and currents were recorded after 2-4 days. […] Currents were recorded in the potassium symmetrical control condition. KATP channel activity was evaluated by intracellular ATP depletion by 3 mM of sodium azide.
current was first recorded in control condition (symmetrical potassium solution). […]

[4] = target: T1, KATP channels in INS-R9 insulinoma cells (Rattus norvegicus, UniProt P70673+Q09429); experiment: Whole cell patch clamp recording of endogenous KATP currents in INS-R9 cells; assay type: cell-based; settings: 10 μM pinacidil applied with MLC901 1 μg/mL
T1 construct: Insulinoma cells naturally have KATP channels; endogenous in cells; host or cells: rat INS-R9 insulinoma cells
T1 sequence (P70673 whole entry): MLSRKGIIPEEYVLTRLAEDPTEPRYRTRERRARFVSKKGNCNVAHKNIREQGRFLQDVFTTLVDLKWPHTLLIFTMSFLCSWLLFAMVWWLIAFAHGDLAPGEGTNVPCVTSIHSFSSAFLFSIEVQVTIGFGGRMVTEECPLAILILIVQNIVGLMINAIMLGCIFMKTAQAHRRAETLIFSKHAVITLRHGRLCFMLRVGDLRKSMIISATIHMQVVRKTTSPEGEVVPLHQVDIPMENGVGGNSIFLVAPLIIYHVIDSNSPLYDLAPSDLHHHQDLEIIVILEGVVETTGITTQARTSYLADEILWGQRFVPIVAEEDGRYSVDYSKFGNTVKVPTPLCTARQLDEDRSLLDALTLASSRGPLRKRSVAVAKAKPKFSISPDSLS
T1 sequence (Q09429 whole entry): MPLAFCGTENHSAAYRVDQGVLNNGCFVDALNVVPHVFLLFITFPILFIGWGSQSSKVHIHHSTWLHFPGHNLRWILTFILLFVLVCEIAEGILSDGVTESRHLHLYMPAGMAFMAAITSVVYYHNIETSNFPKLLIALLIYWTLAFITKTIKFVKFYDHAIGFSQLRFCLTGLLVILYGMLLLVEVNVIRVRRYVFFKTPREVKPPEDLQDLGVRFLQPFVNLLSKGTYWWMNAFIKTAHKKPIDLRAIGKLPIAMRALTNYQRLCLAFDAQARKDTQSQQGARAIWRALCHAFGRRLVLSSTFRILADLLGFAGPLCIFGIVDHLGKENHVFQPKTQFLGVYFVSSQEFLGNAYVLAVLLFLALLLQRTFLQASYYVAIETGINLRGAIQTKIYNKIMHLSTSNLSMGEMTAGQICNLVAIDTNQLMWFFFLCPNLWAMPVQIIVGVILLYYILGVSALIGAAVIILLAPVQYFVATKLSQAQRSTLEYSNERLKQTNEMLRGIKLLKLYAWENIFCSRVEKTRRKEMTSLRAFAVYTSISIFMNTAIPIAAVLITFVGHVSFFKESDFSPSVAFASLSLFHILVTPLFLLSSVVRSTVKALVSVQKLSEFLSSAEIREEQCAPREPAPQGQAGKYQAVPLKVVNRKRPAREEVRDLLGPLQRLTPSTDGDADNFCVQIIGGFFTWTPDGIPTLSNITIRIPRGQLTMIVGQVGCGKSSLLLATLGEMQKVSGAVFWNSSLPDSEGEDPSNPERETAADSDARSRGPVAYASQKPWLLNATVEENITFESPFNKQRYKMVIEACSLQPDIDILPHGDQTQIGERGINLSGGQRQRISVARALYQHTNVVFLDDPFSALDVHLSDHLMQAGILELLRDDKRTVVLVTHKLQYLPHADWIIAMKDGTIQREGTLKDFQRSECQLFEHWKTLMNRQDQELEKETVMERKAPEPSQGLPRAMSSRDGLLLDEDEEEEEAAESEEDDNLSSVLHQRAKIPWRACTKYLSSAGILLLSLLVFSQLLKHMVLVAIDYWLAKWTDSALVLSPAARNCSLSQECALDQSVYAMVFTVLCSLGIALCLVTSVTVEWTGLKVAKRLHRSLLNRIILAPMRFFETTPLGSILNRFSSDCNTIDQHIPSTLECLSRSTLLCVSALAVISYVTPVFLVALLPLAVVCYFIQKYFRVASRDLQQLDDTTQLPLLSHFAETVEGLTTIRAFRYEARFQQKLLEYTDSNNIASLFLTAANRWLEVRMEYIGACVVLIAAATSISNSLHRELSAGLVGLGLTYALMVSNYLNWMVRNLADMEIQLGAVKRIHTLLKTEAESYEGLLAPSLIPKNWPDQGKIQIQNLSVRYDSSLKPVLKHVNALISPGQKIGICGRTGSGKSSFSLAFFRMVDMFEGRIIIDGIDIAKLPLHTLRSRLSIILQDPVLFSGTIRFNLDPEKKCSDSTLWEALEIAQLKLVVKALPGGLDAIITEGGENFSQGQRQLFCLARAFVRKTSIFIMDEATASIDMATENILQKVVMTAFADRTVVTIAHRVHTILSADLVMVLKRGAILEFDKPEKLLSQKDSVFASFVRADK
Protocol: All electrophysiological experiments were done on INS-R9 transfected cells seeded at a density of 20,000 cells/35-mm dish. Transfected cells were used 48-72 h after transfection. […] All current amplitudes are expressed in current densities. Results are expressed as mean and standard error of the mean (SEM). […] For le currents the bath solution contained (in mM) 150 NaCl, 5 KCl, 3 MgCl2, 1 CaCl2 and 10 HEPES adjusted to pH 7.4 with NaOH. […] For Na^+ currents, the bath solution contained (in mM) 150 NaCl, 2 KCl, 1 MgCl2, 1.5 CaCl2, 10 glucose and 10 HEPES adjusted to pH 7.4 with NaOH. […] All experiments were performed at room temperature (21-22° c.). Stimulation protocols and data acquisition were carried out using a microcomputer (Dell Pentium) witch used a commercial software and hardware (pClamp 8.2). K^+ Currents were recorded by voltage clamp steps to membrane potentials of −140 to +80 mV for neurons or −100 to +60 mV for transfected cell lines in 20 mV steps applied from a holding potential of −80 mV. […] Current amplitudes were evaluated at the end of the stimulation pulses. Na^+ currents were recorded by voltage clamp steps to membrane potentials of −80 to +50 mV in 5 mV steps applied from a holding potential of −100 mV. The duration of a depolarization pulse was 100 ms, and the pulse cycling rate was 2 s. Current amplitudes were evaluated at the peak of the stimulation pulses. […]

Compound	effect on the protection induced by MLC901 against OGD damage [1]	effect on MLC901-induced hyperpolarization [2]	amplitude of the azide-induced KATP channel current [3]	KATP current in INS-R9 cells, combination with MLC901 [4]
COc1ccc(Cl)cc1C(=O)NCCc1ccc(S(=O)(=O)NC(=O)NC2CCCCC2)cc1 [glibenclamide]	inhibited the protection induced by MLC901	antagonized		
CC(N=C(NC#N)Nc1ccncc1)C(C)(C)C (stereo not shown) [pinacidil, N-cyano-N′-pyridin-4-yl-N″-(1,2,2-trimethylpropyl)guanidine]			amplified	additive effect
